# Assay results as given in patent US20260232759A1, “PEPTIDES THAT INHIBIT INFECTION BY SARS-COV-2, THE VIRUS THAT CAUSES COVID-19 DISEASE” (Wisconsin Alumni Research Foundation, priority 2021, published 2026).
# Starred links: 1 amine or outer side, 2 acyl side, 3 side chain; linkers in the order of their positions; H or OH if unused. Non-standard residues stand in square brackets, D forms with d. *: point of attachment. X2 = CC(C)CCC[C@@H](C)[C@H]1CC[C@H]2[C@@H]3CC=C4C[C@@H](OC(=O)CCOCCOCCOCCOCCNC(=O)C*)CC[C@]4(C)[C@H]3CC[C@]12C; X1 = O=C([C@H]1CNC[C@@H]1N[*:1])[*:2]; β3hE = N[C@@H](CCC(=O)O)CC(=O)O; β3hQ = NC(=O)CC[C@H](N)CC(=O)O; β3hD = NC(CC(=O)O)CC(=O)O; βAla = NCCC(=O)O
# Molecular target: T1, SARS-CoV-2 S (Severe acute respiratory syndrome coronavirus 2, UniProt P0DTC2)
# T1 construct: expressed in transfected cells
# Assay: β-Gal complementation-based cell-cell fusion assay (S-protein-mediated fusion)
# Conditions: 50% inhibitory concentration (IC50), inhibition of S-mediated fusion
row,Substance,IC50
1,Ac-[β3hD]IS[β3hQ]INASVVNIEYEIKKLEEVA[X1]KLEESLI[β3hD]L[β3hQ]ELGSGSGC(X2)-NH2 [α/β-SARS2 HRC QE-6],~20 nM
2,Ac-[β3hD]IS[β3hQ]INASVVNIEYEI[X1]KLEEVAKKLEESLI[β3hD]L[β3hQ]ELGSGSGC(X2)-NH2 [α/β-SARS2 HRC QE-5],~1000 nM
3,Ac-[β3hD]IS[β3hQ]INASVVNIEYEI[X1]KLEEVA[X1]KLEESLI[β3hD]L[β3hQ]ELGSGSGC(X2)-NH2 [α/β-SARS2 HRC QE-7],~20 nM
4,Ac-[β3hD]IS[β3hQ]INASVVNIEYEI[X1]KLEEVA[X1]KLE[β3hE]SLI[β3hD]L[β3hQ]ELGSGSGC(X2)-NH2 [α/β-SARS2 HRC QE-8],~100 nM

# Same assay, conditions: IC50, inhibition of S-mediated fusion
row,Substance,IC50
1,Ac-[β3hD]IS[β3hQ]INASVVNIEYEI[X1]KLEEVA[X1]KLEESLI[β3hD]L[β3hQ]ELGSGSGC(X2)-NH2 [α/β-SARS2 HRC QE-7],~10 nM
2,Ac-[β3hD]IS[β3hQ]INASVVNIEYEI[X1]KLEEVA[X1]KLEESLI[β3hD]L[β3hQ]EL[βAla]SGS[βAla]C(X2)-NH2 [α/β-SARS2 HRC QE-17],~10 nM
3,Ac-[β3hD]IS[β3hQ]INASVVNI[β3hE]YEI[X1]KLEEVA[X1]KLEESLI[β3hD]L[β3hQ]EL[βAla]SGS[βAla]C(X2)-NH2 [α/β-SARS2 HRC QE-15],~50 nM

# Same assay, conditions: read-out: 90% inhibitory concentration (IC90), inhibition of S-mediated fusion
row,Substance,IC90
1,Ac-[β3hD]IS[β3hQ]INASVVNIEYEIKKLEEVA[X1]KLEESLI[β3hD]L[β3hQ]ELGSGSGC(X2)-NH2 [α/β-SARS2 HRC QE-6],~100 nM
2,Ac-[β3hD]IS[β3hQ]INASVVNIEYEI[X1]KLEEVA[X1]KLEESLI[β3hD]L[β3hQ]ELGSGSGC(X2)-NH2 [α/β-SARS2 HRC QE-7],~100 nM
